According to US20240067603A1, “CUBANYL BIGUANIDE COMPOUNDS” (REGENTS OF THE UNIVERSITY OF MINNESOTA, priority 2020, published 2024):

Columns and labels:
SARS-CoV-2 = SARS-CoV-2 antiviral assay in Vero cells; assay type: cell-based; conditions: Severe acute respiratory syndrome coronavirus 2, Vero cells, FIG. 11; for IC50: read-out: antiviral IC50; for IC90: read-out: antiviral IC90
[1] = Pharmacokinetics in mice plasma (LC-MS/MS); assay type: in vivo; conditions: for AUC, subcutaneous vs IV, intraperitoneal or oral: FIGS. 14-15; for HL_Lambda_z: mice plasma; for Cmax / Tmax: mouse, plasma
Method: HBB PK method: HBB in mice plasma was determined with an LC-MS/MS method using d5-HBB as the internal standard.
Sample preparation: HBB in 150 μL mice plasma was extracted by addition of 300 μL acetonitrile spiked with d5-HBB internal standard (0.5 ug/ml). The extraction mixture was centrifuged at 12,000×g for 5 minutes and 150 μL of supernatant was saved for LC-MS/MS analysis.
(§1) LC-MS/MS method: A Quattro Ultima mass spectrometer (Waters, Milford, MA) equipped with an Acquity UPLC (Waters, Milford, MA) and interfaced through an MassLynx software (Waters, Milford, MA) was used. HBB and d5-HBB were resolved at base line with a Zorbax Eclipse XDG-C18 column (4.6×50 mm, 1.8 micron) (Agilent, Santa Clara, CA). Mobile phases were A: water (0.1% formic acid) and B: acetonitrile (0.1% formic acid). The flow rate was 250 μL/min. Elution gradient was as follow: 0-5 min, 90% A and 10% B; 5 min, 10% A and 90% B; 5.25 min, 90% A and 10% B; 10 min, 90% A and 10% B. At positive mode, ion transition for HBB 276.01 mz to 91.02 mz and d5-HBB 281.09 to 96.06 were monitored.
Quantification: Quantitation was carried out by the MassLynx software based on an HBB standard curve (1.5-1500 ng/ml). Per FDA bioanalytical method validation guideline, standards and plasma samples were bracketed with QC samples to ensure accuracy and precision of the measurement.
HCB PK method: HCB in mouse plasma was determined with an LC-MS/MS method using d5-HBB as the internal standard.
Sample preparation: HCB in 150 μL mice plasma was extracted by addition of 300 μL acetonitrile spiked with d5-HBB internal standard (0.5 ug/ml). The extraction mixture was centrifuged at 12,000×g for 5 minutes and 150 μL of supernatant was saved for LC-MS/MS analysis.
as §1, with “used. Neo biguanide” for “used. HBB”, “Eclipse XDB-C18 Rapid Resolution HT (P.M. 927975-902)” for “Eclipse XDG-C18”, “for” for “for HBB 276.01 mz to 91.02 mz and”, “96.06 and corresponding neo biguanide parent daughter ion transition” for “96.06”
Quantification: Quantitation was carried out by the MassLynx software based on an HCB standard curve (1.5-1500 ng/ml). Per FDA bioanalytical method validation guideline, standards and plasma samples were bracketed with QC samples to ensure accuracy and precision of the measurement.

[2] = Toxicity / tolerance of dosing in mice; assay type: in vivo
Method: Study 1 was performed by dose escalation of SC HBB from 4 mg/kg qd to 12 mg/kg qd with female CD-1 mice (Envigo) approximately 4-8 weeks of age. N=5 mice per HBB dose group, n=10 naïve control mice.
Study 2 two was performed by dose escalation of SC HBB from 16 mg/kg qd to 24 mg/kg qd with female BALB/c mice (Envigo) approximately 6-8 weeks of age. N=4 mice per HBB dose group, n=3 naïve control mice
Study 3 was performed by dose escalation of SC HBB from 16 mg/kg qd to 24 mg/kg qd with female C57BL/6 mice (CR) approximately 6-8 weeks of age. N=12 for HBB dose group, n=3 naïve control mice.

Vero cells = assay: Cytotoxicity assay in Vero cells

CCCCCCNC(=N)NC(=N)NCc1ccccc1 [HBB, N1-hexyl-N5-benzyl-biguanide]
IC50 (SARS-CoV-2): > 20 µM | IC90 (SARS-CoV-2): > 20 µM | AUC, subcutaneous vs IV, intraperitoneal or oral [1]: better AUC | Cl_F_obs ([1]; IP): 88.25 mL/min/kg | Vz_F_obs ([1]; IP): 62.842 L/kg | HL_Lambda_z ([1]; IP): 8.23 h | Cl_obs ([1]; IV): 50.65 mL/min/kg | Vz_obs ([1]; IV): 32.933 L/kg | HL_Lambda_z ([1]; IV): 7.51 h | Cl_F_obs ([1]; SC): 32.89 mL/min/kg | Vz_F_obs ([1]; SC): 23.131 L/kg | fold greater AUC, subcutaneous than ip ([1]; SC vs ip): 2.6 fold | HL_Lambda_z ([1]; SC): 8.13 h | Cmax ([1]; ip): 1840 ng/mL | Tmax ([1]; ip): 1 min | Cmax ([1]; iv): 20100 ng/mL | Tmax ([1]; iv): 1 min | Cmax ([1]; sc): 1860 ng/mL | Tmax ([1]; sc): 5 min | tolerance of daily SC dosing above 12 mg/kg ([2]; SC 16 to 24 mg/kg qd, female BALB/c mice, FIG. 21): not as well tolerated | tolerance of dose escalation ([2]; daily SC 4 to 12 mg/kg over approximately 2 months, female CD-1 mice, FIG. 20): well tolerated | MTD ([2]; female, CD-1 (Study 1), BALB/c (Study 2), C57BL/6 (Study 3), mouse, in vivo, sc, daily): 12 mg/kg | effect on splenic or lymph node CD4 or CD8 T cells ([2]; mice): no observed effect | toxicity in mice ([2]; mouse, in vivo): acceptable toxicity | MTD ([2]; mouse, in vivo, ip, 4 times per week, no more than 2 consecutive days): 6 mg/kg | tolerance of daily SC dosing ([2]; study day 3 to day 26, female C57BL/6 mice, FIG. 22): well tolerated | CC10 (Vero cells): 0.091 µM

CCCCCCNC(=N)NC(=N)NCC12C3C4C5C3C1C5C42 (stereo not shown) [HCB, Hexyl Cubanomethyl Biguanide]
IC50 (SARS-CoV-2): 15.6 µM | IC90 (SARS-CoV-2): 19.6 µM | AUC, subcutaneous vs IV, intraperitoneal or oral [1]: better AUC | CC10 (Vero cells): 0.201 µM
